Earlier results, collected in US10143659B2, “Melt-extruded release controlled pharmaceutical composition and oral dosage form comprising the same” (Samyang Biopharmaceuticals Corporation, priority 2012, dated 2018).

Cc1nc2n(c(=O)c1CCN1CCC(c3noc4cc(F)ccc34)CC1)CCCC2O (centres unmarked) [Paliperidone]
solubility in methylene chloride, methanol and 0.1N hydrochloric acid (methylene chloride, methanol, 0.1N hydrochloric acid): well dissolved | solubility in water (water): poorly soluble
